Assay results as given in ChEMBL document CHEMBL2034842, “Synthesis, anti-Candida activity, and cytotoxicity of new (4-(4-iodophenyl)thiazol-2-yl)hydrazine derivatives” (Eur J Med Chem, 2012).
Converted amounts (≈) assume the structure as drawn.

Experiments:
Type in all cases: functional
Pichia kudriavzevii = test: Antifungal activity against 3 strains of Candida krusei after 24 hrs by […]
Candida tropicalis = test: Antifungal activity against 4 strains of Candida tropicalis after 24 hrs by […]
Nakaseomyces glabratus = test: Antifungal activity against 4 strains of Candida glabrata after 24 hrs by […]
[Candida] sake = Antifungal activity against 2 strains of Candida sake after 24 hrs by […]; settings: Fermentozyma sake
Candida parapsilosis = test: Antifungal activity against 4 strains of Candida parapsilosis after 24 hrs by […]; settings: Lodderomyces parapsilosis
Candida albicans = test: Antifungal activity against 10 strains of Candida albicans after 24 hrs by […]
Proteus vulgaris = test: Antibacterial activity against Proteus vulgaris after 18 to 22 hrs by […]
Klebsiella aerogenes = test: Antibacterial activity against Enterobacter aerogenes after 18 to 22 hrs by […]
Streptococcus pyogenes = test: Antibacterial activity against Streptococcus pyogenes after 18 to 22 hrs by […]
Klebsiella pneumoniae = test: Antibacterial activity against Klebsiella pneumoniae after 18 to 22 hrs by […]
Staphylococcus warneri = test: Antibacterial activity against Staphylococcus warneri after 18 to 22 hrs by […]
Escherichia coli = test: Antibacterial activity against Escherichia coli after 18 to 22 hrs by […]
Enterococcus faecalis = test: Antibacterial activity against Enterococcus faecalis after 18 to 22 hrs by […]
Staphylococcus aureus = test: Antibacterial activity against Staphylococcus aureus after 18 to 22 hrs by […]

| Structure (SMILES) | MIC (Pichia kudriavzevii) [µg/mL] | MIC (Candida tropicalis) [µg/mL] | MIC (Nakaseomyces glabratus) [µg/mL] | MIC ([Candida] sake) [µg/mL] | MIC (Candida parapsilosis) [µg/mL] | MIC (Candida albicans) [µg/mL] | MIC (Proteus vulgaris) [µg/mL] | MIC (Klebsiella aerogenes) [µg/mL] | MIC (Streptococcus pyogenes) [µg/mL] | MIC (Klebsiella pneumoniae) [µg/mL] | MIC (Staphylococcus warneri) [µg/mL] | MIC (Escherichia coli) [µg/mL] | MIC (Enterococcus faecalis) [µg/mL] | MIC (Staphylococcus aureus) [µg/mL] |
| --- | --- | --- | --- | --- | --- | --- | --- | --- | --- | --- | --- | --- | --- | --- |
| COC1=CC(=O)C[C@@H](C)[C@]12Oc1c(Cl)c(OC)cc(OC)c1C2=O [GRISEOFULVIN] | 8 (≈ 22.7 µM) | 8 (≈ 22.7 µM) | 8 (≈ 22.7 µM) | 8 (≈ 22.7 µM) | 8 (≈ 22.7 µM) | 8 (≈ 22.7 µM) |  |  |  |  |  |  |  |  |
| C/C(=N\Nc1nc(-c2ccc(I)cc2)cs1)c1cc2ccccc2oc1=O | 2 (≈ 4.1 µM) | 2 (≈ 4.1 µM) | 4 (≈ 8.21 µM) | 4 (≈ 8.21 µM) | 2 (≈ 4.1 µM) | 2 (≈ 4.1 µM) | > 128 | > 128 | 4 (≈ 8.21 µM) | > 128 | 4 (≈ 8.21 µM) | 16 (≈ 32.8 µM) | 8 (≈ 16.4 µM) | 32 (≈ 65.7 µM) |
| C/C(=N\Nc1nc(-c2ccc(I)cc2)cs1)c1ccco1 | 128 (≈ 313 µM) | 0.5 (≈ 1.22 µM) | 2 (≈ 4.89 µM) | 128 (≈ 313 µM) | 2 (≈ 4.89 µM) | 0.25 (≈ 0.611 µM) | > 128 | > 128 | 2 (≈ 4.89 µM) | > 128 | 32 (≈ 78.2 µM) | > 128 | 8 (≈ 19.5 µM) | 32 (≈ 78.2 µM) |
| OC(Cn1cncn1)(Cn1cncn1)c1ccc(F)cc1F [FLUCONAZOLE] | 4 (≈ 13.1 µM) | 4 (≈ 13.1 µM) | 4 (≈ 13.1 µM) | 4 (≈ 13.1 µM) | 4 (≈ 13.1 µM) | 4 (≈ 13.1 µM) |  |  |  |  |  |  |  |  |
| C/C(=N\Nc1nc(-c2ccc(I)cc2)cs1)c1cccnc1 | 64 (≈ 152 µM) | 0.5 (≈ 1.19 µM) | 2 (≈ 4.76 µM) | 64 (≈ 152 µM) | 2 (≈ 4.76 µM) | 0.25 (≈ 0.595 µM) | 16 (≈ 38.1 µM) | > 128 | 32 (≈ 76.1 µM) | 32 (≈ 76.1 µM) | > 128 | 32 (≈ 76.1 µM) | 32 (≈ 76.1 µM) | > 128 |
| Ic1ccc(-c2csc(N/N=C/c3ccc4c(c3)OCO4)n2)cc1 | 2 (≈ 4.45 µM) | 2 (≈ 4.45 µM) | 4 (≈ 8.9 µM) | 4 (≈ 8.9 µM) | 2 (≈ 4.45 µM) | 2 (≈ 4.45 µM) | > 128 | > 128 | > 128 | > 128 | 32 (≈ 71.2 µM) | > 128 | 32 (≈ 71.2 µM) | 32 (≈ 71.2 µM) |
| CC(C)(O/N=C(\C(=O)N[C@@H]1C(=O)N2C(C(=O)[O-])=C(C[n+]3ccccc3)CS[C@H]12)c1csc(N)n1)C(=O)O [CEFTAZIDIME] |  |  |  |  |  |  | 2 (≈ 3.66 µM) | 2 (≈ 3.66 µM) | 0.5 (≈ 0.915 µM) | 2 (≈ 3.66 µM) | 0.5 (≈ 0.915 µM) | 4 (≈ 7.32 µM) | 0.5 (≈ 0.915 µM) | 0.5 (≈ 0.915 µM) |
| Ic1ccc(-c2csc(N/N=C/c3c[nH]c4ccccc34)n2)cc1 | 4 (≈ 9 µM) | 2 (≈ 4.5 µM) | 4 (≈ 9 µM) | 4 (≈ 9 µM) | 0.5 (≈ 1.13 µM) | 0.5 (≈ 1.13 µM) | > 128 | > 128 | 4 (≈ 9 µM) | > 128 | 32 (≈ 72 µM) | > 128 | 4 (≈ 9 µM) | 32 (≈ 72 µM) |
| CC1CCC(=NNc2nc(-c3ccc(I)cc3)cs2)CC1 (configuration not stated) | 64 (≈ 156 µM) | 2 (≈ 4.86 µM) | 2 (≈ 4.86 µM) | 64 (≈ 156 µM) | 2 (≈ 4.86 µM) | 0.5 (≈ 1.22 µM) | > 128 | > 128 | 2 (≈ 4.86 µM) | > 128 | 32 (≈ 77.8 µM) | > 128 | 4 (≈ 9.72 µM) | 32 (≈ 77.8 µM) |
| C/C(=N\Nc1nc(-c2ccc(I)cc2)cs1)c1cccs1 | 2 (≈ 4.7 µM) | 2 (≈ 4.7 µM) | 4 (≈ 9.4 µM) | 4 (≈ 9.4 µM) | 0.5 (≈ 1.18 µM) | 2 (≈ 4.7 µM) | > 128 | > 128 | > 128 | > 128 | 32 (≈ 75.2 µM) | > 128 | > 128 | 32 (≈ 75.2 µM) |
| C/C(=N\Nc1nc(-c2ccc(I)cc2)cs1)c1ccccn1 | 64 (≈ 152 µM) | 0.5 (≈ 1.19 µM) | 2 (≈ 4.76 µM) | 64 (≈ 152 µM) | 2 (≈ 4.76 µM) | 0.25 (≈ 0.595 µM) | > 128 | > 128 | > 128 | 32 (≈ 76.1 µM) | > 128 | > 128 | > 128 | 32 (≈ 76.1 µM) |
